Like-named read-outs stand apart in the source and are kept apart here.
Tested on: HCV 1b genotype
Assay: HCV replicon assay (HCV-neo replicon cells, wild-type)
Type: cell-based, Hepatitis C virus
Settings: HCV 1b genotype replicon
Outline: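 HCV-neo replicon cells (wild-type) and replicon cells carrying NS5A resistance substitutions were treated with compounds; assay per O'Boyle et al. 2005, with luciferase-reporter read-out variants also used.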

[1] = Hepatitis C virus, class symbols, read-out: EC50 Range against HCV 1b
[2] = Hepatitis C virus, read-out: EC50 1b
[3] = class symbol, read-out: EC50 Range against HCV 1b
[4] = Hepatitis C virus, class symbol, read-out: EC50 Range against HCV 1b

| SMILES | EC50 [1] [nM] | EC50 [4] [nM] | other results |
| --- | --- | --- | --- |
| CCc1ccccc1C(=O)N1C[C@H](O)C[C@H]1C(=O)Nc1ccc(-c2cnc(-c3ccc(NC(=O)[C@@H]4C[C@@H](O)CN4C(=O)c4ccccc4CC)cc3)o2)cc1 [XY-47, (2S,4R,2′S,4′R)-N,N′-(1,3-oxazole-2,5-diyldi-4,1-phenylene)bis(1-(2-ethylbenzoyl)-4-hydroxy-2-pyrrolidinecarboxamide)] | 100 to 999 | – | EC50 [2]: 564 nM |
| C[C@H](NC(=O)c1cc(Cl)ccn1)C(=O)Nc1ccc(-c2nnc(-c3ccc(NC(=O)[C@H](C)NC(=O)c4cc(Cl)ccn4)cc3)o2)cc1 [RK-37, N,N′-(1,3,4-oxadiazole-2,5-diylbis(4,1-phenyleneimino((2S)-1-oxo-1,2-propanediyl)))bis(4-chloro-2-pyridinecarboxamide)] | 1000 to 10000 | – | – |
| CCc1ccccc1C(=O)N1C[C@H](OC(C)(C)C)C[C@H]1C(=O)Nc1ccc(-c2cnc(-c3ccc(NC(=O)[C@@H]4C[C@@H](OC(C)(C)C)CN4C(=O)c4ccccc4CC)cc3)o2)cc1 [XY-65, (2S,4R,2′S,4′R)-N,N′-(1,3-oxazole-2,5-diyldi-4,1-phenylene)bis(4-tert-butoxy-1-(2-ethylbenzoyl)-2-pyrrolidinecarboxamide)] | 1000 to 10000 | – | – |
| CC(O)(C(=O)N1C(C(=O)Nc2ccc(-c3cnc(-c4ccc(NC(=O)C5CC6CC6N5C(=O)C(C)(O)c5ccccc5)cc4)o3)cc2)CC2CC21)c1ccccc1 [CB-8, (1S,3S,5S,1′S,3′S,5′S)-N,N′-(1,3-oxazole-2,5-diyldi-4,1-phenylene)bis(2-((2S)-2-hydroxy-2-phenylpropanoyl)-2-azabicyclo[3.1.0]hexane-3-carboxamide)] | – | – | EC50 [3]: < 4.57 nM; EC50 (read-out: EC50 1b): < 5 nM |
| O=C(Nc1ccc(-c2n[nH]nc2-c2ccc(NC(=O)[C@@H]3CCCN3C(=O)OCc3ccccc3)cc2)cc1)[C@@H]1CCCN1C(=O)OCc1ccccc1 [OL-19, (2S,2′S)-2,2′-[1H-1,2,3-triazole-4,5-diylbis(4,1-phenyleneiminocarbonyl)]bis-1-pyrrolidinecarboxylic acid, bis(phenylmethyl) ester] | – | 4.57 to 99 | – |
| O=C(Nc1ccc(-c2cnc(-c3ccc(NC(=O)[C@@H]4C[C@@H](O)CN4C(=O)C4CCCCC4)cc3)o2)cc1)[C@@H]1C[C@@H](O)CN1C(=O)C1CCCCC1 [XY-48, (2S,4R,2′S,4′R)-N,N′-(1,3-oxazole-2,5-diyldi-4,1-phenylene)bis(1-(cyclohexylcarbonyl)-4-hydroxy-2-pyrrolidinecarboxamide)] | 1000 to 10000 | – | – |
| CN(C)[C@@H](C(=O)N1CCC[C@H]1C(=O)N1CCC[C@H]1C(=O)Nc1ccc(-c2cnc(-c3ccc(NC(=O)[C@@H]4CCCN4C(=O)[C@@H]4CCCN4C(=O)[C@@H](c4ccccc4)N(C)C)cc3)o2)cc1)c1ccccc1 [Example D-38, (2S,2′S)-N,N′-(1,3-oxazole-2,5-diyldi-4,1-phenylene)bis(1-(((2S)-1-((2R)-2-(dimethylamino)-2-phenylacetyl)-2-pyrrolidinyl)carbonyl)-2-pyrrolidinecarboxamide)] | – | 100 to 999 | EC50 [2]: 110 nM |
| O=C(Nc1ccc(-c2nnc(-c3ccc(NC(=O)[C@H]4CCCCN4C(=O)OCc4ccccc4)cc3)o2)cc1)[C@H]1CCCCN1C(=O)OCc1ccccc1 [RK-5, dibenzyl (2R,2′R)-2,2′-(1,3,4-oxadiazole-2,5-diylbis(4,1-phenylenecarbamoyl))di(1-piperidinecarboxylate)] | – | 1000 to 10000 | – |
| CC(=O)N1CCC[C@H]1C(=O)Nc1ccc(-c2cnc(-c3ccc(NC(=O)[C@@H]4C[C@@H](O)CN4C(=O)OCc4ccccc4)cc3)o2)cc1 [MS-3, benzyl (2S,4R)-2-((4-(5-(4-((((2S)-1-acetyl-2-pyrrolidinyl)carbonyl)amino)phenyl)-1,3-oxazol-2-yl)phenyl)carbamoyl)-4-hydroxy-1-pyrrolidinecarboxylate] | – | 100 to 999 | – |
| CC(=O)N1CCC[C@H]1C(=O)Nc1ccc(-c2nc(-c3ccc(NC(=O)[C@@H]4C=CCN4C(=O)c4ccno4)cc3)cs2)cc1 [Example D-50, (2S)-N-[4-[2-[4-[[[(2S)-1-acetyl-2-pyrrolidinyl]carbonyl]amino]phenyl]-4-thiazolyl]phenyl]-2,5-dihydro-1-(5-isoxazolylcarbonyl)-1H-pyrrole-2-carboxamide] | – | 100 to 999 | – |
| CC(C)(C)O[C@@H]1C[C@@H](C(=O)Nc2ccc(-c3cnc(-c4ccc(NC(=O)[C@@H]5C[C@@H](OC(C)(C)C)CN5C(=O)c5ccccc5)cc4)o3)cc2)N(C(=O)c2ccccc2)C1 [XY-73, (2S,4R,2′S,4′R)-N,N′-(1,3-oxazole-2,5-diyldi-4,1-phenylene)bis(1-benzoyl-4-tert-butoxy-2-pyrrolidinecarboxamide)] | 1000 to 10000 | – | – |
| CC(C)(C)OC[C@H](NC(=O)Cc1ccccc1)C(=O)Nc1ccc(-c2cnc(-c3ccc(NC(=O)[C@H](COC(C)(C)C)NC(=O)Cc4ccccc4)cc3)o2)cc1 [JG-16, (2S,2′S)-N,N′-(1,3-oxazole-2,5-diyldi-4,1-phenylene)bis(3-tert-butoxy-2-((phenylacetyl)amino)propanamide)] | – | 100 to 999 | – |
| CC(=O)N1CCC[C@H]1C(=O)Nc1ccc(-c2nnc(-c3ccc(NC(=O)[C@@H]4CCCN4C(=O)Cc4ccccc4)cc3)o2)cc1 [Example D-54, (2S)-1-acetyl-N-[4-[5-[4-[[[(2S)-1-(phenylacetyl)-2-pyrrolidinyl]carbonyl]amino]phenyl]-1,3,4-oxadiazol-2-yl]phenyl]-2-pyrrolidinecarboxamide] | – | 1000 to 10000 | EC50 [2]: 4760 nM |
| O=C(Nc1ccc(-c2nnc(-c3ccc(NC(=O)[C@@H]4CCCN4C(=O)C4CC4)cc3)o2)cc1)[C@@H]1CCCN1C(=O)C1CC1 [Example D-58, (2S,2′S)-N,N′-(1,3,4-oxadiazole-2,5-diyldi-4,1-phenylene)bis[1-(cyclopropylcarbonyl)-2-pyrrolidinecarboxamide]] | – | 1000 to 10000 | EC50 [2]: 2210 nM |
| CC(C)(C)O[C@@H]1C[C@@H](C(=O)Nc2ccc(-c3cnc(-c4ccc(NC(=O)[C@@H]5C[C@@H](OC(C)(C)C)CN5C(=O)CC5CC5)cc4)o3)cc2)N(C(=O)CC2CC2)C1 [XY-61, (2S,4R,2′S,4′R)-N,N′-(1,3-oxazole-2,5-diyldi-4,1-phenylene)bis(4-tert-butoxy-1-(cyclopropylacetyl)-2-pyrrolidinecarboxamide)] | 100 to 999 | – | – |
| O=C(Nc1ccc(-c2nnc(-c3ccc(NC(=O)C4CCCN4C(=O)Cc4ccccc4)cc3)o2)cc1)C1CCCN1C(=O)Cc1ccccc1 (centres unmarked) [RK-3, N,N′-(1,3,4-oxadiazole-2,5-diyldi-4,1-phenylene)bis(1-(phenylacetyl)-2-pyrrolidinecarboxamide)] | – | 100 to 999 | – |
| O=C(Nc1ccc(-c2cnc(-c3ccc(NC(=O)C4CC5CC5N4C(=O)C(O)c4ccccc4)cc3)o2)cc1)C1CC2CC2N1C(=O)C(O)c1ccccc1 [CB-5, (1S,3S,5S,1′S,3′S,5′S)-N,N′-(1,3-oxazole-2,5-diyldi-4,1-phenylene)bis(2-((2S)-2-hydroxy-2-phenylacetyl)-2-azabicyclo[3.1.0]hexane-3-carboxamide)] | – | – | EC50 [3]: 4.57 to 99 nM |
| Cn1nc(-c2ccc(NC(=O)[C@@H]3CCCN3C(=O)Cc3ccccc3)cc2)cc1-c1ccc(NC(=O)[C@@H]2CCCN2C(=O)Cc2ccccc2)cc1 [FY-1, (2S,2′S)-N,N′-((1-methyl-1H-pyrazole-3,5-diyl)di-4,1-phenylene)bis(1-(phenylacetyl)-2-pyrrolidinecarboxamide)] | – | 100 to 999 | – |

From patent publication US8735398B2 (Bristol-Myers Squibb Company, priority 2009, dated 2014)
